{"source": "patent US9085517B2", "about": "“Sulfonamide derivatives” (Pfizer Limited, priority 2011, dated 2015)", "note": "Structures can show the parent of a compound that is named as a salt."}
{"biological_target": "T1, Nav1.7 (or SCN9A) channel (Homo sapiens, UniProt Q15858)", "T1 construct": "expressed in transfected cells", "T1 sequence (Q15858 whole entry)": "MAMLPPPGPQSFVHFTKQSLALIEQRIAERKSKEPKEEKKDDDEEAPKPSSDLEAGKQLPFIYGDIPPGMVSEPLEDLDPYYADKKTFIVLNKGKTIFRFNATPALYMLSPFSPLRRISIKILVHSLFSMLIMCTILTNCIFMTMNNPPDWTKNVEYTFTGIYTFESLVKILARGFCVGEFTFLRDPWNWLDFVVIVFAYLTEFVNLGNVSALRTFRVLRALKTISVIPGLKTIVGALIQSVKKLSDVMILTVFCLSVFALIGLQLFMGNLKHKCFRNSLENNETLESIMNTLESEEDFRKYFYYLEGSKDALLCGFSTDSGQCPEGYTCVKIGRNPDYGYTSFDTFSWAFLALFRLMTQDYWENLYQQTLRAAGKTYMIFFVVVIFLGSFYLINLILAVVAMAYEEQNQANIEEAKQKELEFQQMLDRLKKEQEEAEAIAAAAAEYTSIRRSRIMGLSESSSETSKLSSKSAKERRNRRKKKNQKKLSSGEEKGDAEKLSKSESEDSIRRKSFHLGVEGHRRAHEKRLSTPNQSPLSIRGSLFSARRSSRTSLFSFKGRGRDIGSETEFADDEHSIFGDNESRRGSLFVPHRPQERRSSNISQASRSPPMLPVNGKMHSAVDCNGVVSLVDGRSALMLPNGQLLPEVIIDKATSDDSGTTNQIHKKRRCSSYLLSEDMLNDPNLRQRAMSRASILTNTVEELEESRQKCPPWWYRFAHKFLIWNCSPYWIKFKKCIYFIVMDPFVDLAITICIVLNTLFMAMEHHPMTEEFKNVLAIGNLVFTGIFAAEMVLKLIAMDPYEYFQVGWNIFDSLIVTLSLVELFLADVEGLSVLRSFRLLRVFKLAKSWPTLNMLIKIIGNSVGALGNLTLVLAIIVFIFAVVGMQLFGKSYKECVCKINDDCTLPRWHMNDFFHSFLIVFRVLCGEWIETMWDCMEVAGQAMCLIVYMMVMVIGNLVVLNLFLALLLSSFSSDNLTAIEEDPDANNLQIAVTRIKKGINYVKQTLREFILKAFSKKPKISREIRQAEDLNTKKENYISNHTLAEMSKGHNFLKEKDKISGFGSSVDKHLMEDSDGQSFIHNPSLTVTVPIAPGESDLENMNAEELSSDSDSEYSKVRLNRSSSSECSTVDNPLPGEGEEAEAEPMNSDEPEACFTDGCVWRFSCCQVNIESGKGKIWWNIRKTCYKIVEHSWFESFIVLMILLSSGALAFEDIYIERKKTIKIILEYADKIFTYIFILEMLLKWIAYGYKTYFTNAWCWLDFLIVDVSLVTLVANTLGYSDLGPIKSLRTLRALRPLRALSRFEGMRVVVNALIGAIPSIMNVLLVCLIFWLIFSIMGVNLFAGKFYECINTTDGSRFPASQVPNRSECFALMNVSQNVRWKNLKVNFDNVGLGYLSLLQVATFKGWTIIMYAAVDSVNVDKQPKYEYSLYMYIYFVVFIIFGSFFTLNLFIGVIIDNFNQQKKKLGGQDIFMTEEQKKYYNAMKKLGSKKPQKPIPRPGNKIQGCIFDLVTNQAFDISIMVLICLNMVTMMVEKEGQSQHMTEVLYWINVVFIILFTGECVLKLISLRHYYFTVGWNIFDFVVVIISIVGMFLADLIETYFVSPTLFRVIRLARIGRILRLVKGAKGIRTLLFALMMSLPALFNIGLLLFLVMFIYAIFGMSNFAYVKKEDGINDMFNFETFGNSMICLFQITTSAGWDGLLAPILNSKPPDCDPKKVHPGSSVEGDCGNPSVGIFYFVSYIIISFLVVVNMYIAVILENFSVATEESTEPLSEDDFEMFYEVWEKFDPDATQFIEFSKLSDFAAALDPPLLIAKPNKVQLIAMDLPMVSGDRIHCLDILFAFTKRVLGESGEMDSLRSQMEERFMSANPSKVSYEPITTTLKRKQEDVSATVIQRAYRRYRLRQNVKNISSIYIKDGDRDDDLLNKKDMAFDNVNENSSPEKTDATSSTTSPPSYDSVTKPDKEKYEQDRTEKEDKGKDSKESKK", "assay": "Nav1.7 (hSCN9A) block, whole-cell electrophysiology on the PatchXpress platform", "assay_type": "cell-based", "settings": "estimated IC50 from single point electrophysiology data, HEK cells stably expressing hSCN9A, prepulse to V1/2, read-out: Nav1.7 EIC50", "protocol": "The ability of the compounds of formula (I) to block the Nav1.7 (or SCN9A) channel were measured using the assay described below.\nHuman Embryonic Kidney (HEK) cells were transfected with an hSCN9A construct using lipofectamine reagent (Invitrogen), using standard techniques. Cells stably expressing the hSCN9A constructs were identified by their resistance to G-418 (400 μg/ml). Clones were screened for expression using the whole-cell voltage-clamp technique.\nHEK cells stably transfected with hSCN9A were maintained in DMEM medium supplemented with 10% heat-inactivated fetal bovine serum and 400 μg/ml G-418 in an incubator at 37° C. with a humidified atmosphere of 10% CO2. For HTS, cells were harvested from flasks by trypsinization and replated in an appropriate multi-well plate (typically 96 or 384 wells/plate) such that confluence would be achieved within 24 hours of plating. For electrophysiological studies, cells were removed from the culture flask by brief trypsinization and re-plated at low density onto glass cover slips. Cells were typically used for electrophysiological experiments within 24 to 72 hours after plating.\nCover slips containing HEK cells expressing hSCN9A were placed in a bath on the stage of an inverted microscope and perfused (approximately 1 ml/minutes) with extracellular solution of the following composition: 138 mM NaCl, 2 mM CaCl2, 5.4 mM KCl, 1 mM MgCl2, 10 mM glucose, and 10 mM HEPES, pH 7.4, with NaOH. […] The osmolarity of the extracellular and intracellular solutions was 300 mOsm/kg and 295 mOsm/kg, respectively. All recordings were made at room temperature (22-24° C.) using AXOPATCH 200B amplifiers and PCLAMP software (Axon Instruments, Burlingame, Calif.).\nhSCN9A currents in HEK cells were measured using the whole-cell configuration of the patch-clamp technique (Hamill et al., 1981). Uncompensated series resistance was typically 2 to 5 mega ohms and >85% series resistance compensation was routinely achieved. As a result, voltage errors were negligible and no correction was applied. Current records were acquired at 20 to 50 KHz and filtered at 5 to 10 KHz.\nHEK cells stably transfected with hSCN9A were viewed under Hoffman contrast optics and placed in front of an array of flow pipes emitting either control or compound-containing extracellular solutions. All compounds were dissolved in dimethyl sulfoxide to make 10 mM stock solutions, which were then diluted into extracellular solution to attain the final concentrations desired. […] The voltage-dependence of inactivation was determined by applying a series of depolarizing prepulses (8 sec long in 10 mV increments) from a negative holding potential. The voltage was then immediately stepped to 0 mV to assess the magnitude of the sodium current. Currents elicited at 0 mV were plotted as a function of prepulse potential to allow estimation of the voltage at which 50% of the channels were inactivated (midpoint of inactivation or V1/2). Compounds were tested for their ability to inhibit hSCN9A sodium channels by activating the channel with a 20 msec voltage step to 0 mV following an 8 second conditioning prepulse to the empirically determined V1/2. Compound effect (% inhibition) was determined by difference in current amplitude before and after application of test compounds. For ease of comparison, “estimated IC-50” (EIC50) values were calculated from single point electrophysiology data by the following equation, (tested concentration, uM)×(100−% inhibition/% inhibition). Inhibition values <20% and >80% were excluded from the calculation.\nElectrophysiological assays were conducted with PatchXpress 7000 hardware and associated software (Molecular Devices Corp). All assay buffers and solutions were identical to those used in conventional whole-cell voltage clamp experiments described above. hSCN9A cells were grown as above to 50%-80% confluency and harvested by trypsinization. […]", "units": {"IC50": "nM"}}
{"molecule": "CN(C)S(=O)(=O)NC(=O)c1cc(F)c(COc2ccc(Cl)c(Cl)c2)cc1F", "note": "[Example 10, 4-[(3,4-dichlorophenoxy)methyl]-N-[(dimethylamino)sulfonyl]-2,5-difluorobenzamide]", "IC50": 350}
{"molecule": "O=C(NS(=O)(=O)N1CCC1)c1cc(Cl)c(COc2cnc(C3CC3)c(Cl)c2)cc1F", "note": "[Example 15, N-(azetidin-1-ylsulfonyl)-5-chloro-4-{[(5-chloro-6-cyclopropylpyridin-3-yl)oxy]methyl}-2-fluorobenzamide]", "IC50": 90}
{"molecule": "O=C(NS(=O)(=O)N1CC(F)(F)C1)c1cc(Cl)c(COc2cnc(C3CC3)c(Cl)c2)cc1F", "note": "[Example 16, 5-chloro-4-{[(5-chloro-6-cyclopropylpyridin-3-yl)oxy]methyl}-N-[(3,3-difluoroazetidin-1-yl)sulfonyl]-2-fluorobenzamide]", "IC50": 270}
{"molecule": "CC(C)Oc1ncc(OCc2cc(F)c(C(=O)NS(=O)(=O)N3CCC3)cc2F)cc1Cl", "note": "[Example 13, N-(azetidin-1-ylsulfonyl)-4-{[(5-chloro-6-isopropoxypyridin-3-yl)oxy]methyl}-2,5-difluorobenzamide]", "IC50": 150}
{"molecule": "CN(C)S(=O)(=O)NC(=O)c1cc(F)c(COc2ccc(C(F)(F)F)c(Cl)c2)cc1F", "note": "[Example 2, 4-{[3-Chloro-4-(trifluoromethyl)phenoxy]methyl}-N-[(dimethylamino)sulfonyl]-2,5-difluorobenzamide]", "IC50": 110}
{"molecule": "CN(C)S(=O)(=O)NC(=O)c1cc(F)c(COc2ccc(F)c(Cl)c2)cc1F", "note": "[Example 11, 4-[(3-chloro-4-fluorophenoxy)methyl]-N-[(dimethylamino)sulfonyl]-2,5-difluorobenzamide]", "IC50": 580}
{"molecule": "CN(C)S(=O)(=O)NC(=O)c1cc(F)c(OCc2ccc(Cl)c(Cl)c2)cc1F", "note": "[Example 3, 4-[(3,4-Dichlorobenzyl)oxy]-N-[(dimethylamino)sulfonyl]-2,5-difluorobenzamide]", "IC50": 1300}
{"molecule": "CN(C)S(=O)(=O)NC(=O)c1cc(F)c(COc2ccc(C#N)c(Cl)c2)cc1F", "note": "[Example 9, 4-[(3-chloro-4-cyanophenoxy)methyl]-N-[(dimethylamino)sulfonyl]-2,5-difluorobenzamide]", "IC50": "> 3000"}
{"molecule": "CN(C)S(=O)(=O)NC(=O)c1ccc(COc2ccc(C(F)(F)F)c(Cl)c2)cc1", "note": "[Example 5, 4-{[3-chloro-4-(trifluoromethyl)phenoxy]methyl}-N-[(dimethylamino)sulfonyl]benzamide]", "IC50": 920}
{"molecule": "CN(C)S(=O)(=O)NC(=O)c1cc(F)c(COc2ccc(Cl)c(F)c2)cc1F", "note": "[Example 8, 4-[(4-chloro-3-fluorophenoxy)methyl]-N-[(dimethylamino)sulfonyl]-2,5-difluorobenzamide]", "IC50": 850}
{"molecule": "CN(C)S(=O)(=O)NC(=O)c1cc(F)c(COc2ccc(Cl)c(C(F)(F)F)c2)cc1F", "note": "[Example 6, 4-{[4-chloro-3-(trifluoromethyl)phenoxy]methyl}-N-[(dimethylamino)sulfonyl]-2,5-difluorobenzamide]", "IC50": 200}
{"molecule": "CN(C)S(=O)(=O)NC(=O)c1ccc(OCc2ccc(Cl)c(Cl)c2)cc1", "note": "[Example 12, 4-[(3,4-dichlorobenzyl)oxy]-N-[(dimethylamino)sulfonyl]benzamide]", "IC50": 2300}
{"molecule": "CC(C)Oc1ncc(OCc2cc(F)c(C(=O)NS(=O)(=O)N(C)C)cc2F)cc1Cl", "note": "[Example 1, 4-{[(5-Chloro-6-isopropoxypyridin-3-yl)oxy]methyl}-N-[(dimethylamino)sulfonyl]-2,5-difluorobenzamide]", "IC50": 240}
{"molecule": "CN(C)S(=O)(=O)NC(=O)c1ccc(COc2ccc(Cl)c(C(F)(F)F)c2)cc1", "note": "[Example 4, 4-{[4-chloro-3-(trifluoromethyl)phenoxy]methyl}-N-[(dimethylamino)sulfonyl]benzamide]", "IC50": 1500}
{"molecule": "CN(C)S(=O)(=O)NC(=O)c1cc(Cl)c(COc2cnc(C3CC3)c(Cl)c2)cc1F", "note": "[Example 14, 5-chloro-4-{[(5-chloro-6-cyclopropylpyridin-3-yl)oxyl]methyl}-N-[(dimethylamino)sulfonyl]-2-fluorobenzamide diethylamine salt]", "IC50": 420}
{"molecule": "CC(C)Oc1ncc(COc2cc(F)c(C(=O)NS(=O)(=O)N(C)C)cc2F)cc1Cl", "note": "[Example 7, 4-[(5-chloro-6-isopropoxypyridin-3-yl)methoxy]-N-[(dimethylamino)sulfonyl]-2,5-difluorobenzamide]", "IC50": 8300}
